Patent US11679165B2, “Alkenyl substituted 2,5-piperazinediones, compositions, and uses thereof” (Massachusetts Institute of Technology, priority 2015, dated 2023)

Experiments:
[1] = tested on: human Erythropoietin (EPO); experiment: Serum EPO after intravenous injection of EPO mRNA loaded LNPs (ELISA); format: in vivo, mice; details: for serum EPO concentration: 0.75 mg/kg intravenous, C57BL/6 mice, six hours (FIG. 2); for Average EPO: serum EPO, mean±SD (n=3), 6 hr after 0.75 mg/kg intravenous injection into mice, lipid formulated as EPO mRNA LNP
Method: Compounds OF-00 through OF-03 were then formulated with human erythropoietin (EPO) mRNA, cholesterol, 1,2-dioleoyl-sn-glycero-3-phosphoethanolamine, and C14-PEG-2000 in accordance with previously optimized formulation parameters for mRNA delivery. See, e.g., A. Amirouche et al., Human molecular genetics 2013, 22, 3093-3111. […] Additionally, cKK-E12 is capable of silencing Factor VII expression in mice at siRNA doses as low as 0.002 mg/kg, and as such it represents a benchmark ionizable lipid in the field of nucleic acid delivery. The nanoparticle diameters, polydispersity indices, and encapsulation efficiencies for each of these five formulations is provided in Table 1. Serum EPO concentrations are reported as mean±SD (n=3) 6 hr after a 0.75 mg/kg dose intravenous injection into mice. Encapsulation efficiencies, LNP diameter, and PDI were collected as described above for each representative LNP formulation.
Each resultant mRNA loaded LNP was then injected intravenously at a 0.75 mg/kg dose in C57BL/6 mice alongside phosphate buffered saline (PBS) as a negative control. At six hours, the serum EPO levels were quantified (FIG. 2). The PBS control imparted no significant EPO production in vivo, whereas positive control cKK-E12 LNPs promoted a serum EPO concentration of 7050 ng/mL. […] Additionally, OF-02 outperformed two other benchmark ionizable lipids from the siRNA delivery field, namely 503-013 (See, e.g, J. McClellan, M. C. King, Cell 2010, 141, 210-217; Whitehead et al., Nature Communications (2014) 5:4277) and C12-200 (K. T. Love et al., Proceedings of the National Academy of Sciences of the United States of America 2010, 107, 1864-1869). These two compounds represent the leads in their respective ionizable lipid classes of acrylate esters and amino alcohols, and promoted respective EPO concentrations of 2836 ng/mL and 7065 ng/mL at an identical dose.
General Lipid Nanoparticle (LNP) Synthesis. The organic phase was prepared by solubilizing with ethanol a mixture of ionizable lipid, 1,2-dioleoyl-sn-glycero-3-phosphoethanolamine (DOPE, Avanti), cholesterol (Sigma), and 1,2-dimyristoyl-sn-glycero-3-phosphoethanolamine-N-[methoxy(polyethyleneglycol)-2000] (ammonium salt) (C14-PEG 2000, Avanti) at a molar ratio of 35:16:46.5:2.5 and ionizable lipid:mRNA weight ratio of 10:1 in accordance with previously optimized formulation parameters for mRNA delivery. The aqueous phase was prepared in 10 mM citrate buffer (pH 3) with either EPO mRNA (human Erythropoietin mRNA, courtesy of Shire Pharmaceuticals, Cambridge, Mass.) or Luc mRNA (Firefly luciferase mRNA, Shire). The ethanol and aqueous phases were mixed at a 3:1 ratio in a microfluidic chip device (ref Delai's paper) using syringe pumps as previously described at a final mRNA concentration of 0.1 mg/mL. See, e.g., Chen et al., J. Am. Chem. Soc. (2012) 134:6948. Resultant LNPs were dialyzed against PBS in a 20,000 MWCO cassette at 4° C. for 2 hours.
(§1) Animal Experiments. […] Luminescence was quantified using LivingImage software (Perkin Elmer).

[2] = LNP diameter and polydispersity by dynamic light scattering; format: physicochemical; details: for LNP Diameter: largest intensity mean peak average
Method: (§2) General Lipid Nanoparticle (LNP) Synthesis. […] The ethanol and aqueous phases were mixed at a 3:1 ratio in a microfluidic chip device (ref […] paper) using syringe pumps as previously described at a final mRNA concentration of 0.1 mg/mL. See, e.g., Chen et al., J. Am. Chem. Soc. (2012) 134:6948. Resultant LNPs were dialyzed against PBS in a 20,000 MWCO cassette at 4° C. for 2 hours. LNP Characterization. To calculate the mRNA encapsulation efficiency, a modified Quant-iT RiboGreen RNA assay (Invitrogen) was used as previously described. See, […] al., J. Controlled Release (2005) 107:276-287. The diameter and polydispersity (PDI) of the LNPs were measured using dynamic light scattering (ZetaPALS, Brookhaven Instruments). LNP diameters are reported as the largest intensity mean peak average, which constituted >95% of the nanoparticles present in the sample.

[3] = mRNA encapsulation efficiency, modified Quant-iT RiboGreen RNA assay; format: physicochemical; details: EPO mRNA LNP formulation of the ionizable lipid
Method: as §2

Factor VII = details: mice, siRNA delivery; cited from earlier work
luciferase = tested on: luciferase; parameters: species or system mice; details: mouse, in vivo
Method: We were interested to determine if the efficacy differences observed between ckk-E12 and OF-02 LNPs were due to variations in biodistribution. mRNA coding for luciferase was independently formulated with both ckk-E12 and OF-02 in the same fashion as for EPO delivery, and mouse organs were harvested 24 hours post injection. […] Since more than 4000 human diseases are caused by liver genetic disorders such as hemophilias A and B, OF-02 LNPs represent a promising delivery vehicle for therapeutic mRNA delivery to the liver. See, e.g., J. McClellan et al., Cell 2010, 142, 353-355.
as §1

mice = experiment: Mortality and weight change of mice treated with mRNA LNPs; details: all doses studied
Method: FIG. 7 depicts the percent weight gain for cKK-E12 and OF-02 mRNA LNPs reported as mean SD (n=3) 24 hours after respective intravenous dose into mice.
Animal Experiments. […] LNPs were intraveneously injected in female C57BL/6 mice (Charles River Labs, 18-22 grams) via the tail vein. After six or 24 hours, blood was collected via the tail vein and serum was isolated by centrifugation in serum separation tubes. Serum EPO levels were quantified with an ELISA assay (Human Erythropoietin Quantikine IVD ELISA Kit, R&D Systems, Minneapolis, Md.). 24 hours after injection of Luc-mRNA LNPs, mice were injected intraperitoneally with 130 μL of D-luciferin (30 mg/mL in PBS). After fifteen minutes, mice were sacrificed and the organs were isolated (pancreas, spleen, liver, kidneys, lungs, heart, uterus and ovaries) and imaged with an IVIS imaging system (Perkin Elmer, Waltham, Mass.). Luminescence was quantified using LivingImage software (Perkin Elmer).

SMILES	serum EPO concentration [1]	Average EPO [1]	PDI [2]	LNP Diameter [2]	Encapsulation Efficiency [3]	dose response behaviour of EPO production ([1]; 0.75 to 2.25 mg/kg EPO mRNA (FIG. 3B))	siRNA dose at which Factor VII expression is silenced (Factor VII)	organ of luciferase mRNA translation (total luminescence per organ) (luciferase)	animal mortality (mice)
CCCCCCCCCCCCCOC(=O)CCN(CCC(=O)OCCCCCCCCCCCCC)CCN(C)CCCN(C)CCN(CCC(=O)OCCCCCCCCCCCCC)CCC(=O)OCCCCCCCCCCCCC [Compound 503-013]	2836 ng/mL	–	–	–	–	–	–	–	–
CC/C=C\C/C=C\C/C=C\CC(O)CN(CCCCC1NC(=O)C(CCCCN(CC(O)C/C=C\C/C=C\C/C=C\CC)CC(O)C/C=C\C/C=C\C/C=C\CC)NC1=O)CC(O)C/C=C\C/C=C\C/C=C\CC (stereo not drawn) [OF-03]	–	140 ± 3 ng/mL	0.239	75 nm	76%	–	–	–	–
CCCCCCCCCCC(O)CN(CCN1CCN(CCN(CC(O)CCCCCCCCCC)CC(O)CCCCCCCCCC)CC1)CCN(CC(O)CCCCCCCCCC)CC(O)CCCCCCCCCC (stereo not drawn) [Compound C12-200]	7065 ng/mL	–	–	–	–	–	–	–	–
CCCCCCCCCCC(O)CN(CCCCC1NC(=O)C(CCCCN(CC(O)CCCCCCCCCC)CC(O)CCCCCCCCCC)NC1=O)CC(O)CCCCCCCCCC (stereo not drawn) [cKK-E12]	7050 ng/mL	7100 ± 700 ng/mL	0.217	83 nm	54%	linear fashion with respect to dose	2 µg/kg	predominantly translated in the liver	no animal mortality was observed
